From article PMC2892117 (Bioorganic & medicinal chemistry, 2010)
pIC50: −log10 of the molar value. Counter-ions that a name gives are not always drawn.

Legend:
[1] = test system: T. b. r. STIB 900; experiment: STIB900 mouse model for acute African trypanosomiasis; assay type: in vivo; conditions: for responders at 5 mg/kg / responders at 25 mg/kg: Mus musculus, 1440 h, read-out: Cures; for Survival / Survival (days): average days of mice survival; for Cures: number of mice that survive and are parasite free for 60 days
[2] = test system: Trypanosoma brucei rhodesiense STIB900; experiment: microbe, parasite or virus in culture; conditions: RHODESIENSE|STIB900, read-out: T. b. r. IC50
[3] = test system: Plasmodium falciparum K1; experiment: In vitro assay with P. f. K1 strain; assay type: cell-based; conditions: K1, read-out: P. f. IC50

SMILES | responders at 5 mg/kg ([1]; ip) | responders at 25 mg/kg ([1]; po) | Survival ([1]; po, 4 × 25 mg/kg) | further results
Cl.Cl.N=C(N)c1ccc(-c2cnc(-c3ccc(C(=N)N)cc3)s2)cc1 [5a, 2,5-Bis(4-amidinophenyl)thiazole dihydrochloride] | 25% | – | – | Survival ([1]; ip, 4 × 5 mg/kg): >44.5 days; Cures ([1]; ip, 4 × 5 mg/kg, 5 mg/kg): 1 of four and one of four
N=C(N)c1ccc(-c2cnc(-c3ccc(C(=N)N)nc3)s2)cc1 [5b, 5-(4-Amidinophenyl)-2-(2-amidinopyridin-5-yl)thiazole dihydrochloride] | 0% | – | – | –
N=C(N)c1ccc(-c2cnc(-c3ccc(C(=N)N)cn3)s2)cc1 [5c, 5-(4-Amidinophenyl)-2-(3-amidinopyridin-6-yl)thiazole dihydrochloride] | 0% | – | – | –
Cl.Cl.N=C(N)c1ccc(-c2ncc(-c3ccc(C(=N)N)nc3)s2)cc1 [5d, 2-(4-Amidinophenyl)-5-(2-amidinopyridin-5-yl)thiazole dihydrochloride] | 0% | – | – | Survival ([1]; ip, 4 × 5 mg/kg): >36 days
Cl.Cl.N=C(N)c1ccc(-c2cnc(-c3ccc(C(=N)N)nc3)s2)cn1 [5e, 2,5-Bis(2-amidinopyridin-5-yl)thiazole dihydrochloride] | 0% | – | – | Survival ([1]; ip, 4 × 5 mg/kg): 50.5 days
N=C(N)c1ccc(-c2ncc(-c3ccc(C(=N)N)nc3)s2)nc1 [5f, 2-(3-Amidinopyridin-6-yl)-5-(2-amidinopyridin-5-yl)thiazole dihydrochloride] | 0% | – | – | –
Cl.Cl.N=C(N)c1ccc(-c2cnc(-c3ccc(C(=N)N)cn3)s2)nc1 [5g, 2,5-Bis-(3-amidinopyridin-6-yl)thiazole dihydrochloride] | 0% | – | – | Survival ([1]; ip, 4 × 5 mg/kg): 21.5 days
N/C(=N/O)c1ccc(-c2cnc(-c3ccc(/C(N)=N\O)cc3)s2)cc1 [6a, 2,5-Bis-(4-N-hydroxyamidinophenyl)thiazole dihydrochloride] | – | 0% | – | –
Cl.Cl.N/C(=N\O)c1ccc(-c2cnc(-c3ccc(/C(N)=N/O)nc3)s2)cc1 [6b, 5-(4-N-hydroxyamidinophenyl)-2(2-N-hydroxyamidinopyridin-5-yl)thiazole dihydrochloride] | – | 0% | 37.5 days | –
Cl.Cl.N/C(=N\O)c1ccc(-c2cnc(-c3ccc(/C(N)=N\O)cn3)s2)cc1 [6c, 5-(4-N-hydroxyamidinophenyl)-2-(3-N-hydroxyamidinopyridin-6-yl)thiazole dihydrochloride] | – | 0% | 24 days | –
Cl.Cl.N/C(=N\O)c1ccc(-c2ncc(-c3ccc(/C(N)=N\O)nc3)s2)cc1 [6d, 2-(4-N-hydroxyamidinophenyl)-5-(2-N-hydroxyamidinopyridin-5yl)thiazole dihydrochloride] | – | 0% | 36.75 days | –
Cl.Cl.N/C(=N\O)c1ccc(-c2cnc(-c3ccc(/C(N)=N\O)nc3)s2)cn1 [6e, 2,5-Bis-(2-N-hydroxyamidinopyridin-5-yl)thiazole dihydrochloride] | – | 25% | >37.5 days | –
Cl.Cl.N/C(=N\O)c1ccc(-c2cnc(-c3ccc(/C(N)=N\O)cn3)s2)nc1 [6g, 2,5-Bis(3-N-hydroxyamidinopyridin-6-yl)thiazole dihydrochloride] | – | 0% | 9 days | –
CO/N=C(/N)c1ccc(-c2cnc(-c3ccc(/C(N)=N\OC)cc3)s2)cc1.Cl.Cl [7a, 2,5-Bis-(4-N-methoxyamidinophenyl)thiazole dihydrochloride] | – | 0% | 41 days | –
CO/N=C(\N)c1ccc(-c2cnc(-c3ccc(/C(N)=N/OC)nc3)s2)cc1.Cl [7b, 5-(4-N-methoxyamidinophenyl)-2-(2-N-methoxyamidinopyridin-5-yl)thiazole dihydrochlodide] | – | 0% | 42.75 days | –
CO/N=C(\N)c1ccc(-c2cnc(-c3ccc(/C(N)=N\OC)cn3)s2)cc1.Cl.Cl [7c, 5-(4-N-methoxyamidinophenyl)-2-(3-N-methoxyamidinopyridin-6-yl)thiazole dihydrochloride] | – | 0% | 35 days | –
CO/N=C(\N)c1ccc(-c2cnc(-c3ccc(/C(N)=N\OC)nc3)s2)cn1.Cl.Cl [7e, 2,5-Bis(2-N-methoxyamidinopyridin-5-yl)thiazole dihydrochloride] | – | 25% | >47.25 days | –
CO/N=C(\N)c1ccc(-c2cnc(-c3ccc(/C(N)=N\OC)cn3)s2)nc1 [7g, 2,5-Bis(3-N-methoxyamidinopyridin-6-yl)thiazole dihydrochloride] | – | 0% | – | –
N=C(N)c1ccc(OCCCCCOc2ccc(C(=N)N)cc2)cc1 [I, pentamidine, reference compound] | 50% | – | – | –
N=C(N)c1ccc(-c2ccc(-c3ccc(C(=N)N)cc3)o2)cc1 [IIa, furamidine] | – | – | – | Survival ([1]; ip, 4 × 5 mg/kg): >46 days; pIC50 [2]: 8.49
CONC(=N)c1ccc(-c2ccc(-c3ccc(C(=N)NOC)cc3)o2)cc1 [IIb, Pafuramidine, reference compound] | – | – | > 60 days | Cures ([1]; po, 4 × 5 mg/kg): 0/4; Cures ([1]; po, 4 × 25 mg/kg): 4/4
N=C(N)c1ccc(-c2ccc(-c3ccc(C(=N)N)cn3)o2)cc1 [IIc, azafuramidine, reference compound] | 75% | – | – | Survival ([1]; ip, 4 × 5 mg/kg): >54.5 days; pIC50 [3]: 8.19; pIC50 [2]: 8.15
CO/N=C(\N)c1ccc(-c2ccc(-c3ccc(/C(N)=N/OC)cn3)o2)cc1 [IId, reference compound] | – | – | – | Survival (days) ([1]; po, 4 × 5 mg/kg): >60 >60 days; Cures ([1]; po, 4 × 5 mg/kg): 4/4 4/4; Survival (days) ([1]; po, 4 × 25 mg/kg): >60 >60 days; Cures ([1]; po, 4 × 25 mg/kg): 4/4 4/4
N=C(N)c1ccc(-c2ccc(-c3ccc(C(=N)N)cc3)s2)cc1 [IIe, reference compound] | 50% | – | – | Survival ([1]; ip, 4 × 5 mg/kg): >48.75 days
